# Data as given in PubChem BioAssay (NCI).
#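 Five concentrations, 48 hours, 96-well plates. Abbreviation: GI50, concentration required for 50% inhibition of growth. The concentration for full growth arrest is given as TGI.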
# Legend:
# Assay in all cases: inhibition of tumour cell growth, NCI panel, 48 h
# SK-MEL-2 melanoma = test system: SK-MEL-2 melanoma
# SF-268 CNS = test system: SF-268 CNS
# OVCAR-3 ovarian = test system: OVCAR-3 ovarian
# A549 NSCLC = test system: A549 NSCLC
# TK-10 renal = test system: TK-10 renal
# SK-MEL-5 melanoma = test system: SK-MEL-5 melanoma
# OVCAR-5 ovarian = test system: OVCAR-5 ovarian
# LOX IMVI melanoma = test system: LOX IMVI melanoma
# RPMI-8226 leukemia = test system: RPMI-8226 leukemia
# IGROV1 ovarian = test system: IGROV1 ovarian
SMILES,GI50 (SK-MEL-2 melanoma) [µM],TGI (SK-MEL-2 melanoma) [µM],GI50 (SF-268 CNS) [µM],TGI (SF-268 CNS) [µM],GI50 (OVCAR-3 ovarian) [µM],TGI (OVCAR-3 ovarian) [µM],GI50 (A549 NSCLC) [µM],TGI (A549 NSCLC) [µM],GI50 (TK-10 renal) [µM],TGI (TK-10 renal) [µM],GI50 (SK-MEL-5 melanoma) [µM],TGI (SK-MEL-5 melanoma) [µM],GI50 (OVCAR-5 ovarian) [µM],TGI (OVCAR-5 ovarian) [µM],GI50 (LOX IMVI melanoma) [µM],TGI (LOX IMVI melanoma) [µM],GI50 (RPMI-8226 leukemia) [µM],TGI (RPMI-8226 leukemia) [µM],GI50 (IGROV1 ovarian) [µM],TGI (IGROV1 ovarian) [µM]
COc1ccc2sc3c(NCCCN(C)C)nc4ccccc4c3c(=O)c2c1,1.76,3.32,1.67,3.35,1.78,3.27,1.75,3.74,1.81,3.31,1.73,3.12,1.76,3.23,1.48,2.89,1.68,3.66,1.67,3.23
O=C(/C=C/c1ccccc1)c1cc(Br)ccc1O,,40.6,,34,,43,,52.2,,31.6,,34.6,,46.3,,27.5,,34,,25
Cc1ccc(-c2cn3ccnc3c(-c3ccc(Cl)cc3)n2)cc1,9.27,> 100,0.0885,11.7,0.0412,,1.33,> 49.8,0.419,24.8,0.0627,11.4,14.8,> 100,0.384,12.4,0.207,> 39.5,1.55,> 83
CCOC(=O)COc1ccccc1/C=C1\CCC(CN(C)C)C1=O (centres undefined),,24.7,,12.7,,20.6,,42.8,,25.6,,22.4,,32.4,,5.43,,3.48,,30.4
C=CCC[CH2][Sn]([c]1ccccc1)([c]1ccccc1)[c]1ccccc1,1.76,3.2,1.26,2.71,1.54,2.91,1.71,3.54,1.6,3.09,1.65,3.02,1.12,2.35,1.16,2.38,1.65,4.37,1.77,3.35
